How the values were obtained:
human MIF [1] = molecular target: T1, human MIF (Homo sapiens, UniProt P14174); assay: Depletion of human MIF from supernatant of cultured HepG2 cells (sandwich ELISA); type: cell-based; conditions: 100 nM huMIF, after 24 hours
T1 sequence (P14174 2-115 limits assumed): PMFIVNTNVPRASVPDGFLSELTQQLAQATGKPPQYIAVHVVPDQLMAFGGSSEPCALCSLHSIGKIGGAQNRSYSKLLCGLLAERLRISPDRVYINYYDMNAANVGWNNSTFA
Experimental: In an experiment the results of which are presented in FIG. 3, bifunctional molecules were able to deplete human MIF from the supernatant of culture HepG2 cells. Briefly, human MIF (100 nM) was added to cell culture media in the presence of negative control MIF inhibitor 3w as well as bifunctional molecules MIF-NVS-PEGn-GN3, MIF-GN3, MIF-PEGn-Gn3, MIF-AcF3-1, MIF-AcF3-2, and MIF-AcF3-3. All molecules utilized a known MIF-binding ligand. Experiments were performed in 96 well plates (approximate surface area 0.3 cm^2). HepG2 cells were grown to 90% confluency in RPMI media, then washed with PBS (2×) and treated with serum-free media (optimem+0.1% BSA, +Pen/Strep) containing 100 nM huMIF (Cayman Chemical) and compounds (when applicable). Compounds were diluted from 1 mM stock solutions in DMSO. After 24 hours, a sample of the supernatant (2 uL) was collected, diluted 1:100, and analyzed for MIF content by sandwich ELISA (and incubated for 24 hours in the presence or absence of compound). Remaining MIF levels were determined by sandwich ELISA (biolegend monoclonal anti-MIF and biotinylated anti-MIF antibodies). Data represents the average of at least 3 biological replicates, and error bars represent a standard deviation. After 24 hours, up to 95.3% of the MIF had been depleted from cell culture media (in the case of MIF-AcF3-3).

human MIF [2] = molecular target: T1, human MIF; assay: Trafficking of MIF internalized by HepG2 cells to lysosomes (immunofluorescence colocalization); type: cell-based; conditions: 100 nM rhuMIF, 200 nM compound, 12 hours
Experimental: In this experiment, cells were incubated with rhuMIF (Cayman) at a concentration of 100 nM with 200 nM MIF-GN3.

human MIF [3] = molecular target: T1, human MIF; assay: Depletion of injected human MIF from mice (serum sandwich ELISA); type: in vivo, mouse
Experimental: Human MIF has a half-life of approximately 40 minutes in mice. In this experiment, human recombinant MIF (Cayman chemical) was co-injected into mice with an anti-DNP IgG, which was used as an injection positive control. In particular, nude mice were injected with 5 μg recombinant human MIF and 200 μg anti-DNP IgG as an injection control (FIG. 4). MIF-GN3 was then injected at the concentration shown and blood drawn every twenty minutes over the course of two hours. Serum was diluted 1:100 and analyzed for MIF content by sandwich ELISA (biolegend monoclonal anti-MIF and biotinylated anti-MIF antibodies). […] In the mice treated with MIF-GN3, a moderate increase in huMIF levels up to 20 ng/ml was seen, while in mice injected with PBS negative control, serum levels of up to 150 ng/ml were observed, evidencing a substantial decrease in huMIF levels as a consequence of the administration of MIF-GN3.

[4] = system: PC3 human prostate cancer cells; assay: Mouse model of prostate cancer (PC3 engraftment), tumor growth; type: in vivo; conditions: nude mice engrafted with PC3 cells, treatment initiated immediately
Excerpt: In this experiment, nude mice were engrafted with PC3 human prostate cancer cells. Treatment was then initiated immediately with either a non-bifunctional MIF inhibitor (3w), an anti-MIF antibody, or MIF-GN3.

Row | MIF depleted from cell culture media (human MIF [1]) [%] | MIF internalization in lysosomes (human MIF [2]) | serum huMIF levels (human MIF [3]; nude mice injected with 5 μg recombinant human MIF, blood drawn over two hours) | SMILES | depletion of injected human MIF from mice (human MIF [3]; nude mice, FIG. 5) | tumor growth [4]
1 | 95.3 | – | – | O=C(CCOCC(COCCC(=O)NCCOCCOCCOCCOC[C@@]12CO[C@@H](O1)[C@H](NC(=O)C(F)(F)F)[C@@H](O)[C@H]2O)(COCCC(=O)NCCOCCOCCOCCOC[C@@]12CO[C@@H](O1)[C@H](NC(=O)C(F)(F)F)[C@@H](O)[C@H]2O)NC(=O)CCCOc1ccc2nc(-c3cn(-c4ccc(O)c(F)c4)nn3)ccc2c1)NCCOCCOCCOCCOC[C@@]12CO[C@@H](O1)[C@H](NC(=O)C(F)(F)F)[C@@H](O)[C@H]2O [MIF-AcF3-3] | – | –
2 | – | evidencing internalization in lysosomes | up to 20 ng/ml | CC(=O)N[C@H]1[C@H](OCCOCCOCCNC(=O)CCOCC(COCCC(=O)NCCOCCOCCO[C@@H]2O[C@H](CO)[C@H](O)[C@H](O)[C@H]2NC(C)=O)(COCCC(=O)NCCOCCOCCO[C@@H]2O[C@H](CO)[C@H](O)[C@H](O)[C@H]2NC(C)=O)NC(=O)CNC(=O)CCCOc2ccc3nc(-c4cn(-c5ccc(O)c(F)c5)nn4)ccc3c2)O[C@H](CO)[C@H](O)[C@@H]1O [MIF-GN3] | mediates the depletion of injected human MIF from mice | slowing of tumor growth

Source: US12485178B2, “Bifunctional small molecules to target the selective degradation of circulating proteins” (YALE UNIVERSITY, priority 2018, dated 2025)
